Measurements published in ChEMBL document CHEMBL4616624, “STAT3 inhibitory activity of naphthoquinones isolated from Tabebuia avellanedae” (Bioorg Med Chem, 2020).
Values belong to the compound of their own block, whether it stands above or below them. Calls of active or inactive are those of the source. No cut-off for these calls is given here.

Tests used:
[1] = molecular target: T1, Tyrosine-protein kinase JAK3 (Homo sapiens) (UniProt P52333); assay: Inhibition of human recombinant N-terminal His-tagged JAK3 (795 to 1124 residue) expressed in baculovirus infected Sf21 insect cells up to 100 uM using Srctide as substrate by mobility shift assay
T1 sequence (whole entry): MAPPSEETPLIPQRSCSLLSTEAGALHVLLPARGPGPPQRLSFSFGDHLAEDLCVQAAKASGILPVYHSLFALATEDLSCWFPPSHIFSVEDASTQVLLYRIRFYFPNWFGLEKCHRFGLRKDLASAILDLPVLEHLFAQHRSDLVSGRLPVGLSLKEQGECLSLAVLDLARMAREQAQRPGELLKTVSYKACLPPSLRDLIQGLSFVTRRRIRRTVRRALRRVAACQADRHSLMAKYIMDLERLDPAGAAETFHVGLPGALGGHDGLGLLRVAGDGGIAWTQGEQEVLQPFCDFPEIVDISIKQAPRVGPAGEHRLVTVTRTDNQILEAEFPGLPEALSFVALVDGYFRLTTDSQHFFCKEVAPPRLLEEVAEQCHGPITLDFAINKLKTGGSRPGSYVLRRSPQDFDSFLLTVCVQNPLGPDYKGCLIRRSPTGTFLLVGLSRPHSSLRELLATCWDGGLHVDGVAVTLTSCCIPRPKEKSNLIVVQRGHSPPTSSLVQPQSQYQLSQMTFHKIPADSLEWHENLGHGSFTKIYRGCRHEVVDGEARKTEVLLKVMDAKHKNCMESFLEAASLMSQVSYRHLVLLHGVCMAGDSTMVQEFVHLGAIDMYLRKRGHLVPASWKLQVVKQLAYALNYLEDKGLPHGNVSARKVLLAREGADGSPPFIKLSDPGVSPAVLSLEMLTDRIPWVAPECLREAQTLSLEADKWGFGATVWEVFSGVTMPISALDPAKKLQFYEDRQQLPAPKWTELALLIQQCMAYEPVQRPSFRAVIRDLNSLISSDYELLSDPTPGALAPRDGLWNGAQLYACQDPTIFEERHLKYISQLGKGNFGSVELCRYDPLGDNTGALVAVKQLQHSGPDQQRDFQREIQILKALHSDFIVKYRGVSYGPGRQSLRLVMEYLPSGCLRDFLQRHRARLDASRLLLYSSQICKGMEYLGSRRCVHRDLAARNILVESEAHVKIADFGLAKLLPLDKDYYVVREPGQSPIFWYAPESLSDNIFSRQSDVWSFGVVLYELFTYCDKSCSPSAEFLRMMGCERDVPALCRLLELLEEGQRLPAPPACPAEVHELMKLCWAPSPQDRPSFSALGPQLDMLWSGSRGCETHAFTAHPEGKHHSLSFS

MDA-MB-231 [2] = assay: Inhibition of JAK/STAT signaling in human MDA-MB-231 cells assessed as decrease in STAT3 phosphorylation by measuring phosphorylated intensity level at 1 uM incubated for 2 hrs by Western blot analysis (reference value: 100%); format: cell-based; parameters: scale not given: the % may be the effect or the level left
[3] = molecular target: Tyrosine-protein kinase JAK1 (Homo sapiens) (UniProt P23458); assay: Inhibition of human recombinant N-terminal GST-tagged JAK1 (850 to 1154 residue) expressed in baculovirus expression system at 100 uM using JAK1 peptide as substrate by mobility shift assay relative to control
A549 = assay: Cytotoxicity against human A549 cells assessed as reduction in cell proliferation measured after 72 hrs by WST8 assay; format: functional, cell-based; details: A549, 72 h
MCF7 [4] = assay: Effect on total STAT3 level in IL-6 induced human MCF7 cells at 0.5 to 4 uM preincubated for 1 hr followed by IL-6 stimulation and measured after 1 hr by Western blot analysis; format: ADME, cell-based; details: mcf7, 1 h
MDA-MB-231 [5] = assay: Inhibition of JAK/STAT signaling in human MDA-MB-231 cells assessed as decrease in STAT3 phosphorylation by measuring phosphorylated intensity level at 0.5 uM incubated for 2 hrs by Western blot analysis (reference value: 100%); format: cell-based; parameters: scale not given: the % may be the effect or the level left
MDA-MB-231 [6] = assay: Inhibition of JAK/STAT signaling in human MDA-MB-231 cells assessed as decrease in STAT3 phosphorylation by measuring phosphorylated intensity level at 4 uM incubated for 2 hrs by Western blot analysis (reference value: 100%); format: cell-based; parameters: scale not given: the % may be the effect or the level left
MDA-MB-231 [7] = assay: Cytotoxicity against human MDA-MB-231 cells assessed as reduction in cell proliferation measured after 72 hrs by WST8 assay; format: functional, cell-based; details: MDA-MB-231, 72 h
MDA-MB-231 [8] = assay: Inhibition of JAK/STAT signaling in human MDA-MB-231 cells assessed as decrease in STAT3 phosphorylation by measuring phosphorylated intensity level at 2 uM incubated for 2 hrs by Western blot analysis (reference value: 100%); format: cell-based; parameters: scale not given: the % may be the effect or the level left
MCF7 [9] = assay: Cytotoxicity against human MCF7 cells assessed as reduction in cell proliferation measured after 72 hrs by WST8 assay; format: functional, cell-based; details: MCF7, 72 h
[10] = molecular target: Tyrosine-protein kinase JAK2 (Homo sapiens) (UniProt O60674); assay: Inhibition of human recombinant N-terminal His-tagged JAK2 (826 to 1132 residue) expressed in baculovirus expression system at 100 uM using Srctide as substrate by mobility shift assay relative to control
MDA-MB-231 [11] = assay: Inhibition of JAK/STAT signaling in human MDA-MB-231 cells assessed as decrease in STAT3 phosphorylation incubated for 2 hrs by Western blot analysis; format: cell-based
[12] = molecular target: T2, Signal transducer and activator of transcription 3 (Homo sapiens, UniProt P40763); assay: Inhibition of IL-6 induced STAT3 phosphorylation at Tyr705 residue in human MCF7 cells at 1 uM preincubated for 1 hr followed by IL-6 stimulation and measured after 1 hr by Western blot analysis relative to control; format: cell-based
[13] = molecular target: T2, Signal transducer and activator of transcription 3; assay: Inhibition of IL-6 induced STAT3 phosphorylation at Tyr705 residue in human MCF7 cells at 10 uM preincubated for 1 hr followed by IL-6 stimulation and measured after 1 hr by Western blot analysis relative to control; format: cell-based
[14] = molecular target: T2, Signal transducer and activator of transcription 3; assay: Inhibition of IL-6 induced STAT3 phosphorylation at Tyr705 residue in human MCF7 cells assessed as phosphorylation intensity level at 4 uM preincubated for 1 hr followed by IL-6 stimulation and measured after 1 hr by Western blot analysis; format: cell-based; parameters: scale not given: the % may be the effect or the level left
[15] = molecular target: T2, Signal transducer and activator of transcription 3; assay: Inhibition of IL-6 induced STAT3 phosphorylation at Tyr705 residue in human MCF7 cells assessed as phosphorylation intensity level at 0.5 uM preincubated for 1 hr followed by IL-6 stimulation and measured after 1 hr by Western blot analysis; format: cell-based; parameters: scale not given: the % may be the effect or the level left
[16] = molecular target: T2, Signal transducer and activator of transcription 3; assay: Inhibition of IL-6 induced STAT3 phosphorylation at Tyr705 residue in human MCF7 cells preincubated for 1 hr followed by IL-6 stimulation and measured after 1 hr by Western blot analysis; format: cell-based
[17] = molecular target: T2, Signal transducer and activator of transcription 3; assay: Inhibition of IL-6 induced STAT3 phosphorylation at Tyr705 residue in human MCF7 cells assessed as phosphorylation intensity level at 1 uM preincubated for 1 hr followed by IL-6 stimulation and measured after 1 hr by Western blot analysis; format: cell-based; parameters: scale not given: the % may be the effect or the level left
[18] = molecular target: T2, Signal transducer and activator of transcription 3; assay: Inhibition of IL-6 induced STAT3 phosphorylation at Tyr705 residue in human MCF7 cells assessed as phosphorylation intensity level at 2 uM preincubated for 1 hr followed by IL-6 stimulation and measured after 1 hr by Western blot analysis; format: cell-based; parameters: scale not given: the % may be the effect or the level left
[19] = molecular target: Tyrosine-protein kinase JAK2 (Homo sapiens) (UniProt O60674); assay: Inhibition of IL-6 induced JAK2 phosphorylation at Tyr1007/1008 residue in human MCF7 cells preincubated for 1 hr followed by IL-6 stimulation and measured after 1 hr by Western blot analysis; format: cell-based
[20] = molecular target: T3, Signal transducer and activator of transcription 1-alpha/beta (Homo sapiens) (UniProt P42224); assay: Inhibition of FAM-G(py)DKPHVL-NH2 binding to GST-tagged STAT1-SH2 domain (unknown origin) preincubated for 15 mins followed by FAM-G(py)DKPHVL-NH2 addition and measured after 30 mins by TR-FRET assay
T3 sequence (whole entry): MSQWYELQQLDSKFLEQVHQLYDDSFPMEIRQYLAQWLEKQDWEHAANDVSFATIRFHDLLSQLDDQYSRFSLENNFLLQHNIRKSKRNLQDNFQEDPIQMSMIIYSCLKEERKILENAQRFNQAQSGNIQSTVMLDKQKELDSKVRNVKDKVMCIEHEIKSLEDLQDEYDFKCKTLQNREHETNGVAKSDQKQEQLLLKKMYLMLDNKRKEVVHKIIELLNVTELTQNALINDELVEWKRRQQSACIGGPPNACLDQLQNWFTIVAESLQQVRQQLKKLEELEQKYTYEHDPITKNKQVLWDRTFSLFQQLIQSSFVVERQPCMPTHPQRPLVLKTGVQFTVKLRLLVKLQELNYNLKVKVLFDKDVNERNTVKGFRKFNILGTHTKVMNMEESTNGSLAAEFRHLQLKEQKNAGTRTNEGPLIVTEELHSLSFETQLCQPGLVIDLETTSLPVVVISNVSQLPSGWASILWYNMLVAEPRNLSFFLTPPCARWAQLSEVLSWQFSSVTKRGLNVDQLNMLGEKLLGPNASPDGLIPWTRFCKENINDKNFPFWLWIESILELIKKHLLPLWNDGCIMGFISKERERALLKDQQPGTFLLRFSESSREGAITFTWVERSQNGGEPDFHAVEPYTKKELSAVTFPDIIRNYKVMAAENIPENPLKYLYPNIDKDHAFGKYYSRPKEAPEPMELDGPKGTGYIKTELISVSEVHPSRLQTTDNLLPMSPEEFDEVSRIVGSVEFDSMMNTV

[21] = molecular target: T2, Signal transducer and activator of transcription 3; assay: Inhibition of FAM-G(py)LPQTV-NH2 binding to GST-tagged STAT3-SH2 domain (unknown origin) preincubated for 15 mins followed by FAM-G(py)LPQTV-NH2 addition and measured after 30 mins by TR-FRET assay

Sequence of Tyrosine-protein kinase JAK2 (Homo sapiens) (O60674 whole entry, the tested form may be a part): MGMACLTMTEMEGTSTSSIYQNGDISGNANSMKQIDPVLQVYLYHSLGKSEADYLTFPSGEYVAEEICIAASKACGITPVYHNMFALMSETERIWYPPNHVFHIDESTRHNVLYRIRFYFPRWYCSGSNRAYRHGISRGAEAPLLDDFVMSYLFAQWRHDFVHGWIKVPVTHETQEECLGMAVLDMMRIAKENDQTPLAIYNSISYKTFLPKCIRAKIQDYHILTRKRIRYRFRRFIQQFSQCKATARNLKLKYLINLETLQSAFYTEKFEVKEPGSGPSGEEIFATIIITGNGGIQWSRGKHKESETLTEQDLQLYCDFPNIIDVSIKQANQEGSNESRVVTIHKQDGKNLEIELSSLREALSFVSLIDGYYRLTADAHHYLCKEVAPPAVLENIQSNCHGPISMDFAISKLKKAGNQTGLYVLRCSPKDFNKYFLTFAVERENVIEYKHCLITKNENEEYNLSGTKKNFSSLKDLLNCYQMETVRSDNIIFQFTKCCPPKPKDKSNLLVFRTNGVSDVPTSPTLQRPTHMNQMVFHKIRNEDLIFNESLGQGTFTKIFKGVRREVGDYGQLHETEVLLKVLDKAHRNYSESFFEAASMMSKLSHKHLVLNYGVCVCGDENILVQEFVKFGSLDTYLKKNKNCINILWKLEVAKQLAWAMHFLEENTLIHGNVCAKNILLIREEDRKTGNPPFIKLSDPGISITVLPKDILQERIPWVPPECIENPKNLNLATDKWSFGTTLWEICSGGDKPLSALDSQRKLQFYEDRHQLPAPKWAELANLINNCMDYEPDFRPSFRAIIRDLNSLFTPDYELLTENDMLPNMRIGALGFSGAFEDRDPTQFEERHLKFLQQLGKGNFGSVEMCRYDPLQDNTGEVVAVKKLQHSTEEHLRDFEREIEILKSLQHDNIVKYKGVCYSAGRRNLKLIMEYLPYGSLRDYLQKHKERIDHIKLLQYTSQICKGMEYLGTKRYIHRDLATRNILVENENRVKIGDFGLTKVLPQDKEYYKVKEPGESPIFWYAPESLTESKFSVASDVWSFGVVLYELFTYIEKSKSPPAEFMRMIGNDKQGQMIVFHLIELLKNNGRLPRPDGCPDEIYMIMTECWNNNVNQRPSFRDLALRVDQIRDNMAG
T2 sequence (P40763 whole entry): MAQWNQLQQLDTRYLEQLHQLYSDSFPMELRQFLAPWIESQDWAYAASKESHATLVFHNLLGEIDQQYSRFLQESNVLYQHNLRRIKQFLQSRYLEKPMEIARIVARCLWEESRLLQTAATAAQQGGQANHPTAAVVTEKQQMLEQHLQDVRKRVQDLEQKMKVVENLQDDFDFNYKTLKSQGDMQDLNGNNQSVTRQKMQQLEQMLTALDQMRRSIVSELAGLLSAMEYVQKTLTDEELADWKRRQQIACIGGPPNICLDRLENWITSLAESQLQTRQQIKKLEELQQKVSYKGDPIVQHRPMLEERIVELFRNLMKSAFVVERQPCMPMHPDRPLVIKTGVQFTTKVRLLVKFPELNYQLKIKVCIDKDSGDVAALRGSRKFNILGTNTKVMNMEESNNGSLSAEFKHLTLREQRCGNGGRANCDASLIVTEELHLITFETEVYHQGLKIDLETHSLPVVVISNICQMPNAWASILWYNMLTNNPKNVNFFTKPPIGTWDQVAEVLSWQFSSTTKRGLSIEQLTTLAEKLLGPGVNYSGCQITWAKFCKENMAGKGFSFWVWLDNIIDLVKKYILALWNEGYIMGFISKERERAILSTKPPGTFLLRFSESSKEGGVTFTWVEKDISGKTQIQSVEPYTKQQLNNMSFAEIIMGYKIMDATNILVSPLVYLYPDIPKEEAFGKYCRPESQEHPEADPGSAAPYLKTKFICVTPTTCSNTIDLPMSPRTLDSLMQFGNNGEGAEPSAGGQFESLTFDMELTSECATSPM
Sequence of Tyrosine-protein kinase JAK1 (Homo sapiens) (P23458 whole entry): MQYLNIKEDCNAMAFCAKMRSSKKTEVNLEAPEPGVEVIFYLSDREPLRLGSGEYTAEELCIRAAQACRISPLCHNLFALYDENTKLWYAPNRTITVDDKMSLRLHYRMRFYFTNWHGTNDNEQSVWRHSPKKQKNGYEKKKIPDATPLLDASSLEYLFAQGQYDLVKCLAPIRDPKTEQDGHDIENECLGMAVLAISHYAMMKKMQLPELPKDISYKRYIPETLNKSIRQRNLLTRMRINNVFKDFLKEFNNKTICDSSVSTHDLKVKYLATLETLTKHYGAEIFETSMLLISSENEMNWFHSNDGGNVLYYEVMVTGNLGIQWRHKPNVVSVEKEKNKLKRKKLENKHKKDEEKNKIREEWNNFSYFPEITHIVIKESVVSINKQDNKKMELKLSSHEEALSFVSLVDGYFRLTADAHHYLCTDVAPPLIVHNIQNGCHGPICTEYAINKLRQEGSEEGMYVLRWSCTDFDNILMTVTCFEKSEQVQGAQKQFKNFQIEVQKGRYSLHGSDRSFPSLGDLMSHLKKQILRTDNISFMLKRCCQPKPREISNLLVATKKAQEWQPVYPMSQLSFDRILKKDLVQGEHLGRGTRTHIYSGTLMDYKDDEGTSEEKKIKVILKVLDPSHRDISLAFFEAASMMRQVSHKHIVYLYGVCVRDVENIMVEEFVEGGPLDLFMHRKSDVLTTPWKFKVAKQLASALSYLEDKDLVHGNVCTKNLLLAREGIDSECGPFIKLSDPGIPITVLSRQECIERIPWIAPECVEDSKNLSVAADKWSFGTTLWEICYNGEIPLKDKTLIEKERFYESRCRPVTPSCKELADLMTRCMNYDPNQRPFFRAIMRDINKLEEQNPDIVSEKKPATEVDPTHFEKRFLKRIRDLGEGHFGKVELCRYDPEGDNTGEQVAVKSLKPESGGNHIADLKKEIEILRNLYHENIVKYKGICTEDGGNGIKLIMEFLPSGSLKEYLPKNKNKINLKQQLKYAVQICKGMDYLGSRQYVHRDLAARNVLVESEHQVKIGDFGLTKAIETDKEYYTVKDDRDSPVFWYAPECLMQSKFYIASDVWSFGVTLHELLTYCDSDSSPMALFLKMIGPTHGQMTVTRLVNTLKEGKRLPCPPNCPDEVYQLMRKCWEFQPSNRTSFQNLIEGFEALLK

Structure (SMILES): CC(=O)c1cc2c(o1)C(=O)c1cccc(O)c1C2=O
IC50 (A549): 44 nM
Activity [14]: 23%
Activity [15]: 107%
Activity (MCF7 [4]): Non-Toxic
IC50 [16]: 2000 nM
IC50 (MDA-MB-231 [7]): 170 nM
Activity [17]: 84%
Activity [18]: 38%
IC50 (MCF7 [9]): 51 nM

Structure (SMILES): CC(C)=CCC1=C(O)C(=O)c2ccccc2C1=O [LAPACHOL]
inhibition [12]: inactive
IC50 (A549): > 30000 nM
inhibition [13]: inactive
IC50 (MDA-MB-231 [7]): > 30000 nM
IC50 (MCF7 [9]): > 30000 nM

Structure (SMILES): C[C@H](O)c1cc2c(o1)C(=O)c1cccc(O)c1C2=O
inhibition [1]: inactive
Activity (MDA-MB-231 [2]): 78%
inhibition [3]: 94.8%
inhibition [19]: Dose-dependent effect
inhibition [12]: Active
IC50 (A549): 130 nM
inhibition [13]: 100%
Activity [14]: 3%
Activity [15]: 76%
Activity (MCF7 [4]): Non-Toxic
IC50 [16]: 2000 nM
inhibition [20]: inactive
Activity (MDA-MB-231 [5]): 68%
Activity (MDA-MB-231 [6]): 35%
IC50 (MDA-MB-231 [7]): 410 nM
Activity [17]: 75%
inhibition [21]: inactive
Activity (MDA-MB-231 [8]): 21%
Activity [18]: 43%
IC50 (MCF7 [9]): 500 nM
inhibition [10]: 80.6%
inhibition (MDA-MB-231 [11]): Dose-dependent effect

Now from value to compound, other results behind:

inhibition [1]: inactive
inhibition [3]: 95.5%
inhibition [10]: 84.7%
Structure (SMILES): CC(=O)c1cc2c(o1)C(=O)c1ccccc1C2=O [NAPABUCASIN]
Activity (MDA-MB-231 [2]): 107%
IC50 (A549): 120 nM
Activity (MCF7 [4]): Non-Toxic
Activity (MDA-MB-231 [5]): 111%
Activity (MDA-MB-231 [6]): 28%
IC50 (MDA-MB-231 [7]): 250 nM
Activity (MDA-MB-231 [8]): 48%
IC50 (MCF7 [9]): 240 nM
inhibition (MDA-MB-231 [11]): Dose-dependent effect

inhibition [12]: inactive
inhibition [13]: inactive
Structure (SMILES): CC1(C)CCC2=C(O1)c1ccccc1C(=O)C2=O [LAPACHONE]
IC50 (A549): 1960 nM
IC50 (MDA-MB-231 [7]): 1390 nM
IC50 (MCF7 [9]): 710 nM

Activity [14]: 35%
Activity [15]: 36%
Activity [17]: 23%
Activity [18]: 20%
Structure (SMILES): C[C@H](O)c1cc2c(o1)C(=O)c1ccccc1C2=O
IC50 (A549): 720 nM
Activity (MCF7 [4]): Non-Toxic
IC50 (MDA-MB-231 [7]): 1590 nM
IC50 (MCF7 [9]): 280 nM

inhibition [12]: inactive
inhibition [13]: inactive
Structure (SMILES): CC1(C)CCC2=C(O1)C(=O)c1ccccc1C2=O [ALPHA-LAPACHONE]
IC50 (A549): > 30000 nM
IC50 (MDA-MB-231 [7]): > 30000 nM
IC50 (MCF7 [9]): > 30000 nM

inhibition [12]: Active
inhibition [13]: 100%
Structure (SMILES): C[C@H](O)c1cc2c(o1)C(=O)c1c(O)cccc1C2=O
IC50 (A549): 280 nM
IC50 (MDA-MB-231 [7]): 330 nM
IC50 (MCF7 [9]): 1110 nM
